Consider 1 compound from patent US20250332109A1 (Veradermics, Incorporated, priority 2024, published 2025).

Like-named read-outs stand apart in the source and are kept apart here.

One series concerns male adults with AGA. As to conditions: 5 mg oral at bedtime; 24 week follow up; cited from earlier work.
The next series relates to patients. As to conditions: chronic therapy; initially, then recovers; cited from earlier work.
The conditions of series [1]: cited from earlier work.
Series [2] has as its system person with androgenetic alopecia. Kind of series: Case study: person with androgenetic alopecia and hypertension treated with oral minoxidil. As to conditions: 0.625 mg four times a day.
The subject of a further series is rabbits. The note with it: oral, 5 times the maximum recommended oral antihypertensive human dose; cited from earlier work.
For the next series, the system named is subjects. The note with it: topical foam 5% versus vehicle topical foam; 404 subjects enrolled; cited from earlier work.
A further series relates to hypertensive patients. As to conditions: intravenous infusion; cited from earlier work.
The test system of series [3] is person with androgenetic alopecia. As to conditions: 1.25 mg QID.
For a further series, the system named is mice. The note with it: dietary, up to 2 years, 10, 25, and 63 mg/kg/day; cited from earlier work.
The conditions of series [4]: primarily by conjugation with glucuronic acid; cited from earlier work.

Consider `Nc1cc(N2CCCCC2)nc(N)[n+]1[O-]` [minoxidil], for which, in the series on male adults with AGA, the subjects reporting edema is 2.9% and the subjects reporting vertigo is listed as 2.9%. In addition, the “temporary decrease in hematocrit, hemoglobin, and erythrocyte count (hemodilution)” value in the series on patients is “approximately 7%”. In addition, the “dose dependence of PK” value in [1] (2.5 mg, 5 mg, 10 mg oral, PK and urinary excretion data) is on record as “dose-independent PK”. Also, the “duration plasma concentrations above 20 ng/mL” value in series [1] (5 mg dose level) was “around 1 h”. In series [1] (10 mg dose level), the “duration plasma concentrations above 20 ng/mL” value is listed as “around 2 h”. The observed half-life entry in series [1] (immediate release formulation, healthy subjects) is given as “around 1 h”. Further, in series [1] (normotensive subjects, 2.5 mg, 5 mg, or 10 mg oral), the “effect on blood pressure” value is reported as “little effect on blood pressure”. Besides, in [2], the “reductions in blood pressure” value is “did not experience significant reductions in blood pressure” and the “unwanted hair growth or other adverse events” value is “No unwanted hair growth or other adverse events”. Moreover, the fetal resorption entry in the series with rabbits is recorded as “increased fetal resorption”. The “SAEs reported in treated subjects” value with subjects was “Six”. Also, the “steady state plasma concentration associated with significant (>5 beats per minute) changes in heart rate” value with hypertensive patients was “above 20 ng/mL”. In [3], the “unwanted hair growth or other adverse events, including cardiac effects” value is “No unwanted hair growth or other adverse events”. Further, the “incidence of malignant lymphomas in females” value with mice was “increased incidence of malignant lymphomas”. The “fraction of oral dose metabolized” value in series [4] was “About 90%”.
